In patent US10323018B2 (Millennium Pharmaceuticals, Inc., priority 2015, dated 2019):

Legend:
hNAMPT protein = hNAMPT protein (Homo sapiens (Human), UniProt P43490); assay: NAMPT enzyme assay (TR-FRET/HTRF with BodiPY ligand); type: binding; conditions: for inhibition at 1 µM: NAMPT inhibition at compound concentration 1 μM, read-out: Percent Inhibition; for IC50: NAMPT inhibition, IC50 range class
Outline: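 His-tagged hNAMPT with anti-6His-Tb, incubated with compound and BodiPY ligand for 1 h at rt in the dark, in Tris-HCl pH 7.5 buffer with DTT, NaCl, MgCl2 and Tween 20. TR-FRET measured with 320 nm excitation as the 520/486 nm emission ratio. IC50 fitted relative to DMSO controls.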

PC3 cells = assay: PC3 growth inhibition (Cell-titer glo, 72 hours); type: cell-based; conditions: Homo sapiens, PC-3, 72 h, read-out: Percent Viability, PC3 cells, compound concentration 1.667 μM, 72 hours
Outline: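 PC3 cells grown in RPMI1640 plated at 8×10^4 cells/ml, incubated overnight, then exposed to compound diluted in AIM serum-free medium for 72 h at 37 °C, 5% CO2. Luminescence by CellTiter-Glo relative to DMSO controls; % viability at single concentration, GI50 or LD50 from concentration-response curves.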

hNAMPT protein, sequence (P43490 whole entry): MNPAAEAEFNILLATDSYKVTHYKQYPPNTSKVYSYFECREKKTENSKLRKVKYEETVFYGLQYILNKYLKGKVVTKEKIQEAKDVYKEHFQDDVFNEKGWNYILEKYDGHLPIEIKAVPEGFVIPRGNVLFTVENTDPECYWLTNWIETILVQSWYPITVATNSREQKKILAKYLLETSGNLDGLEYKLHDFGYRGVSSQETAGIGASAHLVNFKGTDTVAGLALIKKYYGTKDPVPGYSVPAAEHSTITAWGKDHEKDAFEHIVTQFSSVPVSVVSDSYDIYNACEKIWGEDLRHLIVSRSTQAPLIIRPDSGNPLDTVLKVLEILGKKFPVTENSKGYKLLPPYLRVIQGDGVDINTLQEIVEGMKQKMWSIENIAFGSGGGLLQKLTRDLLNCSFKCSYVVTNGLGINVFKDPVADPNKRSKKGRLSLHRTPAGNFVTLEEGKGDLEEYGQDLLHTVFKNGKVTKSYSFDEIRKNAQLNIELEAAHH

Row | Compound | inhibition at 1 µM (hNAMPT protein) [%] | IC50 (hNAMPT protein) [nM] | viability at 1.667 µM (PC3 cells) [%]
1 | CCOc1cc(-c2cnc(OC)c(F)c2)nc2cc(C(=O)NCCCc3nnc[nH]3)ccc12 [Compound I-89, 4-ethoxy-2-(5-fluoro-6-methoxypyridin-3-yl)-N-[3-(4H-1,2,4-triazol-3-yl)propyl]quinoline-7-carboxamide] | 96 | 10 to 50 | 2
2 | CCOc1cc(-c2ccnc(OC)c2F)nc2cc(C(=O)NCCCc3nnc[nH]3)ccc12 [Compound I-90, 4-ethoxy-2-(3-fluoro-2-methoxypyridin-4-yl)-N-[3-(4H-1,2,4-triazol-3-yl)propyl]quinoline-7-carboxamide] | 97 | 10 to 50 | 1
3 | CCOc1cc(-c2ccc(F)cc2)nc2cc(C(=O)NCC(F)(F)Cc3nnc[nH]3)ccc12 [Compound I-91, N-[2,2-difluoro-3-(4H-1,2,4-triazol-3-yl)propyl]-4-ethoxy-2-(4-fluorophenyl)quinoline-7-carboxamide] | 80 | > 100 | 2
4 | CCOc1cc(-c2ccc(C)nc2OC)nc2cc(C(=O)NCCc3c[nH]nc3C)ccc12 [Compound I-92, 4-ethoxy-2-(2-methoxy-6-methylpyridin-3-yl)-N-[2-(3-methyl-1H-pyrazol-4-yl)ethyl]quinoline-7-carboxamide] | 95 | 10 to 50 | 2
5 | CCOc1cc(-c2ccc(OC)nc2)nc2cc(C(=O)NCCCc3[nH]nnc3C)ccc12 [Compound I-93, 4-ethoxy-2-(6-methoxypyridin-3-yl)-N-[3-(4-methyl-1H-1,2,3-triazol-5-yl)propyl]quinoline-7-carboxamide] | 99 | 10 to 50 | 2
6 | CCOc1cc(-c2ccc(C)nc2OC)nc2cc(C(=O)NCCCc3[nH]nnc3C)ccc12 [Compound I-94, 4-ethoxy-2-(2-methoxy-6-methylpyridin-3-yl)-N-[3-(4-methyl-1H-1,2,3-triazol-5-yl)propyl]quinoline-7-carboxamide] | 97 | 10 to 50 | 1
7 | CCOc1cc(-c2ccn(C)c(=O)c2)nc2cc(C(=O)NCCCc3cnn[nH]3)ccc12 [Compound I-95, 4-ethoxy-2-(1-methyl-2-oxo-1,2-dihydropyridin-4-yl)-N-[3-(1H-1,2,3-triazol-5-yl)propyl]quinoline-7-carboxamide] | > 99 | < 10 | 1
8 | CCOc1cc(-c2ccc(=O)n(C)c2)nc2cc(C(=O)NCCCc3cnn[nH]3)ccc12 [Compound I-96, 4-ethoxy-2-(1-methyl-6-oxo-1,6-dihydropyridin-3-yl)-N-[3-(1H-1,2,3-triazol-5-yl)propyl]quinoline-7-carboxamide] | > 99 | < 10 | 1
9 | CCOc1cc(-c2ccc(=O)n(C)c2)nc2cc(C(=O)NCCCc3[nH]nnc3C)ccc12 [Compound I-97, 4-ethoxy-2-(1-methyl-6-oxo-1,6-dihydropyridin-3-yl)-N-[3-(4-methyl-1H-1,2,3-triazol-5-yl)propyl]quinoline-7-carboxamide] | > 99 | 10 to 50 | 2
10 | CCOc1cc(-c2ccc(=O)n(C)c2)nc2cc(C(=O)NCCc3c[nH]nc3C)ccc12 [Compound I-98, 4-ethoxy-2-(1-methyl-6-oxo-1,6-dihydropyridin-3-yl)-N-[2-(3-methyl-1H-pyrazol-4-yl)ethyl]quinoline-7-carboxamide] | 99 | 50 to 100 | 1
11 | CCOc1cc(-c2ccnc(C)c2)nc2cc(C(=O)NCc3nc4cnccc4[nH]3)ccc12 [Compound I-99, 4-ethoxy-N-(1H-imidazo[4,5-c]pyridin-2-ylmethyl)-2-(2-methylpyridin-4-yl)quinoline-7-carboxamide] | > 99 | < 10 | 2
12 | CCOc1cc(-c2ccnc(OC)c2)nc2cc(C(=O)NCCc3c[nH]nc3C)ccc12 [Compound I-100, 4-ethoxy-2-(2-methoxypyridin-4-yl)-N-[2-(3-methyl-1H-pyrazol-4-yl)ethyl]quinoline-7-carboxamide] | 92 | 50 to 100 | 2
13 | CCOc1cc(-c2ccc(OC)nc2)nc2cc(C(=O)NCCCc3nnc[nH]3)ccc12 [Compound I-101, 4-ethoxy-2-(6-methoxypyridin-3-yl)-N-[3-(4H-1,2,4-triazol-3-yl)propyl]quinoline-7-carboxamide] | 96 | 10 to 50 | 2
14 | CCOc1cc(-c2ccc(OC)nc2)nc2cc(C(=O)NCCCc3cnn[nH]3)ccc12 [Compound I-102, 4-ethoxy-2-(6-methoxypyridin-3-yl)-N-[3-(1H-1,2,3-triazol-5-yl)propyl]quinoline-7-carboxamide] | 99 | < 10 | 2
15 | CCOc1cc(-c2ccc(C)nc2OC)nc2cc(C(=O)NCCCc3cnn[nH]3)ccc12 [Compound I-103, 4-ethoxy-2-(2-methoxy-6-methylpyridin-3-yl)-N-[3-(1H-1,2,3-triazol-5-yl)propyl]quinoline-7-carboxamide] | > 99 | 10 to 50 | 2
16 | CCOc1cc(-c2ccc(C)nc2OC)nc2cc(C(=O)NCCCc3ccn[nH]3)ccc12 [Compound I-104, 4-ethoxy-2-(2-methoxy-6-methylpyridin-3-yl)-N-[3-(1H-pyrazol-5-yl)propyl]quinoline-7-carboxamide] | 95 | 10 to 50 | 2
17 | CCOc1cc(-c2cccnc2OC)nc2cc(C(=O)NCCCc3cnn[nH]3)ccc12 [Compound I-105, 4-ethoxy-2-(2-methoxypyridin-3-yl)-N-[3-(1H-1,2,3-triazol-5-yl)propyl]quinoline-7-carboxamide] | 100 | 10 to 50 | 2
18 | CCOc1cc(-c2ccc(F)cc2OC)nc2cc(C(=O)NCCCc3[nH]nnc3C)ccc12 [Compound I-106, 4-ethoxy-2-(4-fluoro-2-methoxyphenyl)-N-[3-(4-methyl-1H-1,2,3-triazol-5-yl)propyl]quinoline-7-carboxamide] | 100 | 10 to 50 | 2
19 | CCOc1cc(-c2ccc(F)cc2)nc2cc(C(=O)NCCc3cnn[nH]3)ccc12 [Compound I-107, 4-ethoxy-2-(4-fluorophenyl)-N-[2-(1H-1,2,3-triazol-5-yl)ethyl]quinoline-7-carboxamide] | 99 | < 10 | 2
20 | CCOc1cc(-c2ccc(F)cc2OC)nc2cc(C(=O)NCCc3cnn[nH]3)ccc12 [Compound I-108, 4-ethoxy-2-(4-fluoro-2-methoxyphenyl)-N-[2-(1H-1,2,3-triazol-5-yl)ethyl]quinoline-7-carboxamide] | 99 | 10 to 50 | 3
21 | COCCOc1cc(-c2ccc(F)cc2)nc2cc(C(=O)NCCCc3cn[nH]n3)ccc12 [Compound I-109, 2-(4-fluorophenyl)-4-(2-methoxyethoxy)-N-[3-(2H-1,2,3-triazol-4-yl)propyl]quinoline-7-carboxamide] | 100 | 10 to 50 | 2
22 | CCOc1cc(-c2ccc(C)nc2)nc2cc(C(=O)NCCCc3cnn[nH]3)ccc12 [Compound I-110, 4-ethoxy-2-(6-methylpyridin-3-yl)-N-[3-(1H-1,2,3-triazol-5-yl)propyl]quinoline-7-carboxamide] | 100 | < 10 | 2
23 | CCOc1cc(-c2ccc(C)nc2)nc2cc(C(=O)NCCCc3cc[nH]n3)ccc12 [Compound I-111, 4-ethoxy-2-(6-methylpyridin-3-yl)-N-[3-(1H-pyrazol-3-yl)propyl]quinoline-7-carboxamide] | 97 | 10 to 50 | 2
24 | CCOc1cc(-c2ccc(C)nc2)nc2cc(C(=O)NCCCc3[nH]nnc3C)ccc12 [Compound I-112, 4-ethoxy-2-(6-methylpyridin-3-yl)-N-[3-(4-methyl-1H-1,2,3-triazol-5-yl)propyl]quinoline-7-carboxamide] | 99 | 10 to 50 | 2
25 | CCOc1cc(-c2ccc(C)nc2)nc2cc(C(=O)NCCc3c[nH]nc3C)ccc12 [Compound I-113, 4-ethoxy-N-[2-(3-methyl-1H-pyrazol-4-yl)ethyl]-2-(6-methylpyridin-3-yl)quinoline-7-carboxamide] | 97 | 10 to 50 | 2
26 | CCOc1cc(-c2ccnc(OC)c2)nc2cc(C(=O)NCCCc3nnc[nH]3)ccc12 [Compound I-114, 4-ethoxy-2-(2-methoxypyridin-4-yl)-N-[3-(4H-1,2,4-triazol-3-yl)propyl]quinoline-7-carboxamide] | 97 | 10 to 50 | 2
27 | CCOc1cc(-c2ccc(F)cc2)nc2cc(C(=O)NCCCc3cnn[nH]3)ccc12 [Compound I-115, 4-ethoxy-2-(4-fluorophenyl)-N-[3-(1H-1,2,3-triazol-5-yl)propyl]quinoline-7-carboxamide] | > 99 | < 10 | 2
